Key:
Assay type in all cases: biochemical
[1] = molecular target: T1, HbHNL (Hevea brasiliensis, UniProt P52704); details: 5 mM citrate phosphate pH 5
[2] = molecular target: T2, MeHNL (Manihot esculenta, UniProt P52705); details: 5 mM citrate phosphate pH 5
[3] = molecular target: T1, HbHNL; assay: benzaldehyde release, A280; details: 50 mM citrate pH 5.0
[4] = molecular target: T2, MeHNL; assay: benzaldehyde release, A280; details: 50 mM citrate pH 5.0

T2 sequence (P52705 2-258): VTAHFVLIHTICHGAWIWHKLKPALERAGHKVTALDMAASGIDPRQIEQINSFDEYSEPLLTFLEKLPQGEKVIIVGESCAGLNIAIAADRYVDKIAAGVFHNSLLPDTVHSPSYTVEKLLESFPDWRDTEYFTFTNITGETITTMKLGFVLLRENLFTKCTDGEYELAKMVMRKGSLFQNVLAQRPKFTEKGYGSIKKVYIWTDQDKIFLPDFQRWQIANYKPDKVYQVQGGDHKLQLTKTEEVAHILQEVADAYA
T1 sequence (P52704 whole entry): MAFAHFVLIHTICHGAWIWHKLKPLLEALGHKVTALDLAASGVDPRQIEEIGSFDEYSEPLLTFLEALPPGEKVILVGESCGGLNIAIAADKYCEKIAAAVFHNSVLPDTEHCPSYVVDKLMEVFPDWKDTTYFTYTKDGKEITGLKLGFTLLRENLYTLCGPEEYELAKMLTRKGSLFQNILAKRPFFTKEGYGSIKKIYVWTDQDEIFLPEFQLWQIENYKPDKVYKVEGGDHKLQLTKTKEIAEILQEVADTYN

With `CC(C)(O)C#N` [acetone cyanohydrin] the “HCN release, modified König reaction” value [1] was “The best substrate is the natural one, acetone cyanohydrin” and the “HCN release, modified König reaction” value [2] was “The best substrate is the natural one, acetone cyanohydrin”.

With `N#CC(O)c1ccccc1` (racemic) [mandelonitrile] the “benzaldehyde release, A280” value [3] was “They also efficiently cleaved their unnatural substrate mandelonitrile” and the “benzaldehyde release, A280” value [4] was “They also efficiently cleaved their unnatural substrate mandelonitrile”.

Reference: paper PMC5466365 (Journal of the American Chemical Society, 2016)
